The values below come from patent publication US9155752B2, “Liver function-improving agent” (UENO FINE CHEMICALS INDUSTRY, LTD., priority 2012, dated 2015).

Each structure is given as a SMILES string.

This experiment has as its system NASH mice. Kind of experiment: Oil Red staining of liver, fat accumulation area % (Test Example 3). The experiment is classed as in vivo. As to conditions: for Fat accumulation area %, Significant difference: Student-t, 5% level. From the text:
A solid diet CE-2 (lipid 4.6% by weight, manufactured by CLEA Japan, Inc.) was used as a normal diet. A solid diet, High Fat Diet 32 (lipid 32.0% by weight, sucrose 6.75% by weight, manufactured by CLEA Japan, Inc.), was used as a sucrose-containing high fat diet. As a maltitol-containing high-fat diet, a special diet (lipid 32.0% by weight, maltitol 6.08% by weight; manufactured by CLEA Japan, Inc.) obtained by replacing the total amount (6.75% by weight) of sucrose in a solid diet, High Fat Diet 32, with powdered maltitol (Whole Crystalline Maltitol Ueno 60M (purity of maltitol: 90%), manufactured by Ueno Fine Chemicals Industry Ltd.) was used. Sodium hypochlorite (PURELOX-S, manufactured by OYALOX Co., Ltd.) was added to pure water prepared by Elix-UV pure water producing apparatus, to a final concentration of 0.00009%, so that pure water for use in the test was obtained. An aqueous maltitol solution was prepared by dissolving powdered maltitol (Whole Crystalline Maltitol Ueno 60M (purity of maltitol: 90%), manufactured by Ueno Fine Chemicals Industry Ltd.) in pure water to a concentration of 1.8% (weight/volume). The purity of maltitol in the aqueous maltitol solution was 1.62%. Twenty-one female SPF mice (C57BL/6J, produced by CLEA Japan, Inc.) on day 14 of pregnancy were purchased and acclimation was performed. All animals were allowed to make a natural birth and a born male was used to produce a model. In addition, the weaning was at 4 weeks after birth. Streptozotocin (Sigma-Aldrich Japan K.K.) was adjusted to a concentration of 10 mg/mL with a physiological saline solution (manufactured by Otsuka Pharmaceutical Factory, Inc.) and the solution was subcutaneously administered once to the back of 2-day-old male mice at a dose of 20 μL/mouse (200 μg/mouse). Afterwards, the mother animal took care of the baby until weaning. The weaning was on day 28±2 after birth. After the weaning, a normal diet was supplied ad libitum to animals receiving no streptozotocin (normal mice (group S1 and group 1)), and a sucrose-containing high fat diet was supplied ad libitum to animals receiving streptozotocin (NASH mice (group S2, group 2, group 3, and group 4). A normal diet was supplied ad libitum to normal mice (group 1). With respect to NASH mice, a sucrose-containing high fat diet was supplied ad libitum to the sucrose group (group 2), and a maltitol-containing high fat diet was supplied ad libitum to the maltitol-low dose group (group 3) and the maltitol-high dose group (group 4). An aqueous maltitol solution was supplied ad libitum only to the maltitol-high dose group (group 4) of 5 to 8 weeks of age, and pure water was supplied ad libitum to the groups other than group 4 of 5 to 8 weeks of age. Six male animals per group were assigned to groups S1 and S2, reared up to 5 weeks of age, and then necropsied. Eight male animals per group were assigned to groups 1, 2, 3 and 4, reared up to 8 weeks of age, and then necropsied. At scheduled necropsy of the animals of 5 or 8 weeks of age, all individuals were anesthetized with diethyl ether (manufactured by Sigma-Aldrich Japan K.K.) and a needle through which heparin sodium (Novo Heparin Injection 1000, manufactured by Mochida Pharmaceutical Co., Ltd.) had been passed was punctured to the heart to aspirate the whole blood, leading to euthanasia, followed by harvest of the organ. With respect to animals of 5 or 8 weeks of age at scheduled necropsy, the left outer lobe of the liver was immersed in a neutral formalin solution (manufactured by Wako Pure Chemical Industries, Ltd.) for fixation at room temperature for 24 hours, subjected to sucrose substitution, embedded in a tray for cryosection (CRYO DISH manufactured by Shoei Works Co., Ltd.) filled with O.C.T. compound (manufactured by Sakura Finetek Japan Co., Ltd.), immediately frozen with liquid nitrogen, and preserved at −80° C. for oil red staining. […]

For `OC[C@H]1O[C@@](CO)(O[C@H]2O[C@H](CO)[C@@H](O)[C@H](O)[C@H]2O)[C@@H](O)[C@@H]1O` [sucrose, reference compound], the “Fat accumulation area %, Significant difference” value (Group 2 (sucrose) at 8 weeks vs group S2 at 5 weeks of age) was “a significant difference was not observed and No”. Also, the “Fat accumulation area % (Oil Red staining), mean ± standard deviation” value (Group 2, sucrose group: HFD32 (sucrose 6.75%) + pure water, eight weeks of age) was 34.7 ± 8.4%.
Take `OC[C@@H](O)[C@@H](O[C@H]1O[C@H](CO)[C@@H](O)[C@H](O)[C@H]1O)[C@H](O)[C@@H](O)CO` [maltitol]: the “Fat accumulation area %, Significant difference” value is, setting by setting: (Group 3 (low-dose maltitol) at 8 weeks vs group S2 at 5 weeks of age) “significantly low and Yes”; (Group 4 (high-dose maltitol) at 8 weeks vs group S2 at 5 weeks of age) “significantly low and Yes”. Besides, the “Fat accumulation area % (Oil Red staining), mean ± standard deviation” value reads like this: (Group 3, low-dose maltitol: HFD32-M (maltitol 6.08%) + pure water from 5 to 8 weeks of age) 32.7 ± 7.6%; (Group 4, high-dose maltitol: HFD32-M (maltitol 6.08%) + aqueous maltitol solution 1.62% from 5 to 8 weeks of age) 28.6 ± 5.5%.
